Results from patent US20150329558A1, “FUSED HETEROCYCLIC COMPOUNDS AS ION CHANNEL MODULATORS” (Gilead Sciences, Inc., priority 2011, published 2015).
Where two headings read alike, the source gives them in different places.

How the values were obtained:
[1] = Microsomal stability assay, rat; type: in vitro ADME; details: metabolic stability, rat liver microsomes 0.5 mg/mL, substrate 3 uM
Protocol: (§1) The micorsomal stability assay is generally performed as follows. Format: 15 compounds (and 1 control verapamil) in 3 different species in duplicate sets Substrate: 3 uM Protein concentration: 0.5 mg/mL (for dog, rat, and human liver microsomes) Cofactor: 1×NADPH-Regenerating system Time-points: 2, 12, 25, 45, and 65 minutes [table] Sample preparation: 25 uL at each timepoint is added to plate with 225 uL quenching solution (50% MeOH, 25% ACN, 25% H2O, and 50 nM […]). After plates are vortexed, centrifuge for 30 minutes. Microsomal solutions: take 400 uL of 20 mg/mL microsomes and add to 13,680 uL 100 mM KPO4 buffer. Using an 8-channel, add 650 uL of this solution to the designated two columns on a short plate. The order should be dog microsomes in columns 1 and 2, rat microsomes in columns 3 and 4, and human microsomes in columns 5 and 6. Keep on ice before use. Place this plate in incubator 1 on the TECAN countertop.

[2] = Microsomal stability assay, dog; type: in vitro ADME; details: metabolic stability, dog liver microsomes 0.5 mg/mL, substrate 3 uM
Protocol: as §1

[3] = biological target: wild-type human cardiac sodium channel, hNav1.5 (late INa) (Homo sapiens, UniProt Q14524); assay: Late INa screening assay (QPatch whole cell patch clamp); type: cell-based
Procedure, shortened: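 HEK293 cells stably expressing hNav1.5 alpha subunit without beta subunits, QPatch automated whole-cell clamp at 23-25° C, CsF-based internal solution pH 7.4. Late INa induced by 10 μM tefluthrin; 250 ms steps to −20 mV from −120 mV at 0.1 Hz, compounds at 1 μM. Percent block of mean current 225–250 ms into the step.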

[4] = Microsomal stability assay, human; type: in vitro ADME; details: metabolic stability, human liver microsomes 0.5 mg/mL, substrate 3 uM
Protocol: as §1

[5] = percent block of late INa, compound at 1 μM, 10 μM Tefluthrin, HEK293 hNav1.5, read-out: Late INa 1 μM

Sequence of wild-type human cardiac sodium channel, hNav1.5 (late INa) (Q14524 whole entry): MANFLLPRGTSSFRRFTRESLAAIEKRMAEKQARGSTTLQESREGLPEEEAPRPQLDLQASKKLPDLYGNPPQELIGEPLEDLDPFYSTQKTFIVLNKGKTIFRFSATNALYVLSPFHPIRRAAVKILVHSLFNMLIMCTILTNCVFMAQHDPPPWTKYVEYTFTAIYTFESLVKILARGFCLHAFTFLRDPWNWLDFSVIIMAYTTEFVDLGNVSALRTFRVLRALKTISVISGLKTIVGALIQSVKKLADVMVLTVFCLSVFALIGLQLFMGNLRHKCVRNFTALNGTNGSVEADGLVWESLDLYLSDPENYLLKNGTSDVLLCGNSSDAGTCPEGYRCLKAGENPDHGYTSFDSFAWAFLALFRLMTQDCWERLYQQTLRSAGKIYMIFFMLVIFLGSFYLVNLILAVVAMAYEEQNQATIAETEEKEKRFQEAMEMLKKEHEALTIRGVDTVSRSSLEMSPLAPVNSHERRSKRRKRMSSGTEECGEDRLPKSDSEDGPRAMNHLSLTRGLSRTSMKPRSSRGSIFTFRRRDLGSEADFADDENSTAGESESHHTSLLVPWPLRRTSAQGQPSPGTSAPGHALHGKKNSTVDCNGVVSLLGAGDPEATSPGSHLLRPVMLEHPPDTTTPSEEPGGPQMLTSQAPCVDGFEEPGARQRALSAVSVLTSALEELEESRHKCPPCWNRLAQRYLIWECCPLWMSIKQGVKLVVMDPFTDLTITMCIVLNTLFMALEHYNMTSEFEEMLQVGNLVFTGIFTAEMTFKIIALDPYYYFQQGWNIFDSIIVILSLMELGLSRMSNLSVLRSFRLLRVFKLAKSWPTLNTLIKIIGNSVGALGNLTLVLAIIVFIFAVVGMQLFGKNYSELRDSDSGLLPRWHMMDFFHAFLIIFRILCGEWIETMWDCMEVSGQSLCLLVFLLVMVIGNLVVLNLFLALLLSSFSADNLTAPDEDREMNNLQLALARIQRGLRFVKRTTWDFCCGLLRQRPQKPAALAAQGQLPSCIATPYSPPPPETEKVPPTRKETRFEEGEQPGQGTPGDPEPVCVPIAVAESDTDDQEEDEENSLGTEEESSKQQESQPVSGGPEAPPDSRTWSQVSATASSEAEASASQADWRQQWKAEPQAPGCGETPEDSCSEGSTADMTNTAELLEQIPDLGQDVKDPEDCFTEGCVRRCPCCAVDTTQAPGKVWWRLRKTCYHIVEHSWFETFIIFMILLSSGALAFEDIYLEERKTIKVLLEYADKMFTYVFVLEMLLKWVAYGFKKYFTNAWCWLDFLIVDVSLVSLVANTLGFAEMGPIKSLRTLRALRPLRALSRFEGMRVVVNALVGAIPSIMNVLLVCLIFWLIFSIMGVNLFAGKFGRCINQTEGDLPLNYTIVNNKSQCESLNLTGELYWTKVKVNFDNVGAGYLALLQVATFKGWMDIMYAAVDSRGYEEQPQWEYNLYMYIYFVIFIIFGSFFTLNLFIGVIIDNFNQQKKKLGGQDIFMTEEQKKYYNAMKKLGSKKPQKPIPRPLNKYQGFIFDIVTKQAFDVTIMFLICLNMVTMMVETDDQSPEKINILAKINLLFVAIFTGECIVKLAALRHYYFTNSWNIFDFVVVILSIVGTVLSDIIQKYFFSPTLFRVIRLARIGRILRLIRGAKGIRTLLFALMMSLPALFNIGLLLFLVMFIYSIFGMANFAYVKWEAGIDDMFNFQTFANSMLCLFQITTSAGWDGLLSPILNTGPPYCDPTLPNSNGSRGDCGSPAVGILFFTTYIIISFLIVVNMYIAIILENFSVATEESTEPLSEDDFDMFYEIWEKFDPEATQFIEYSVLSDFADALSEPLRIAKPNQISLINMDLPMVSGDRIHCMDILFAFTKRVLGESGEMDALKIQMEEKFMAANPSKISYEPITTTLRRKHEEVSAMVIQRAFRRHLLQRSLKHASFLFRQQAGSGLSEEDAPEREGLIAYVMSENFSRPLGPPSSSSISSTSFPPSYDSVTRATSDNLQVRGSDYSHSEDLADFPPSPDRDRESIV

O=c1c2cc(-c3ccc(OC(F)(F)F)cc3)ccc2nnn1C1CCN(CC(F)(F)F)CC1 [II-71, 3-(1-(2,2,2-trifluoroethyl)piperidin-4-yl)-6-(4-(trifluoromethoxy)phenyl)benzo[d][1,2,3]triazin-4(3H)-one]
MS Rat THalf [1]: 94 min
MS Dog THalf [2]: 78 min
inhibition at 1 µM [3, 5]: 25%
MS Human THalf [4]: 75 min

CCOC(=O)N1CCC(=O)C(n2nnc3ccc(-c4ccc(OC(F)(F)F)cc4)cc3c2=O)C1 (stereo not shown) [II-72, ethyl 4-oxo-3-(4-oxo-6-(4-(trifluoromethoxy)phenyl)benzo[d][1,2,3]triazin-3(4H)-yl)piperidine-1-carboxylate]
MS Rat THalf [1]: 8 min
MS Dog THalf [2]: 6 min
inhibition at 1 µM [3, 5]: 31%
MS Human THalf [4]: 11 min

CC(C)(COc1ncccn1)Cn1nnc2ccc(-c3ccc(OC(F)(F)F)cc3)cc2c1=O [II-84, 3-(2,2-dimethyl-3-(pyrimidin-2-yloxy)propyl)-6-(4-(trifluoromethoxy)phenyl)benzo[d][1,2,3]triazin-4(3H)-one]
MS Rat THalf [1]: 51 min
MS Dog THalf [2]: 98 min
inhibition at 1 µM [3, 5]: 34%
MS Human THalf [4]: 107 min

O=c1c2cc(-c3ccc(OC(F)(F)F)cc3)ccc2nnn1Cc1coc(C2CCC2)n1 [II-98, 3((2-cyclobutyloxazol-4-yl)methyl)-6-(4-(trifluoromethoxy)phenyl)benzo[d][1,2,3]triazin-4(3H)-one]
MS Rat THalf [1]: 16 min
MS Dog THalf [2]: 34 min
inhibition at 1 µM [3, 5]: 41%
MS Human THalf [4]: 31 min

Cc1nc(Cn2ncc3ccc(-c4ccc(OC(F)(F)F)cc4)cc3c2=O)no1 [III-3, 2-((5-methyl-1,2,4-oxadiazol-3-yl)methyl)-7-(4-(trifluoromethoxy)phenyl)phthalazin-1(2H)-one]
MS Rat THalf [1]: 104 min
MS Dog THalf [2]: 122 min
inhibition at 1 µM [3, 5]: 42%
MS Human THalf [4]: > 395 min

O=c1c2cc(-c3ccc(OC(F)(F)F)cc3)ccc2cnn1CCn1cccc1 [III-10, 2-(2-(1H-pyrrol-1-yl)ethyl)-7-(4-(trifluoromethoxy)phenyl)phthalazin-1(2H)-one]
MS Rat THalf [1]: 18 min
MS Dog THalf [2]: 18 min
inhibition at 1 µM [3, 5]: 33%
MS Human THalf [4]: 41 min

O=c1c2cc(-c3ccc(OC(F)(F)F)cc3)ccc2cnn1Cc1cccnc1Br [III-14, 2-((2-bromopyridin-3-yl)methyl)-7-(4-(trifluoromethoxy)phenyl)phthalazin-1 (2H)-one]
MS Rat THalf [1]: 55 min
MS Dog THalf [2]: 77 min
inhibition at 1 µM [3, 5]: 39%
MS Human THalf [4]: 251 min

Cc1ccn(CCn2ncc3ccc(-c4ccc(OC(F)(F)F)cc4)cc3c2=O)n1 [III-17, 2-(2-(3-methyl-1H-pyrazol-1-yl)ethyl)-7-(4-(trifluoromethoxy)phenyl)phthalazin-1 (2H)-one]
MS Rat THalf [1]: 22 min
MS Dog THalf [2]: 28 min
inhibition at 1 µM [3, 5]: 49%
MS Human THalf [4]: 34 min

Cc1cccc(CCn2ncc3ccc(-c4ccc(OC(F)(F)F)cc4)cc3c2=O)n1 [III-18, 2-(2-(6-methylpyridin-2-yl)ethyl)-7-(4-(trifluoromethoxy)phenyl)phthalazin-1 (2H)-one]
MS Rat THalf [1]: 20 min
MS Dog THalf [2]: 23 min
inhibition at 1 µM [3, 5]: 37%
MS Human THalf [4]: 25 min

O=c1c2cc(-c3ccc(OC(F)(F)F)cc3)ccc2cnn1Cc1cccnc1C1CC1 [III-20]
MS Rat THalf [1]: 54 min
MS Dog THalf [2]: 61 min
inhibition at 1 µM [3, 5]: 28%
MS Human THalf [4]: 41 min

Cc1cc(C)nc(Cn2ncc3ccc(-c4ccc(OC(F)(F)F)cc4)cc3c2=O)n1 [III-22]
MS Rat THalf [1]: 86 min
MS Dog THalf [2]: 191 min
inhibition at 1 µM [3, 5]: 35%
MS Human THalf [4]: 252 min

Cc1cc(C)n(CCn2ncc3ccc(-c4ccc(OC(F)(F)F)cc4)cc3c2=O)n1 [III-24, 2-(2-(3,5-dimethyl-1H-pyrazol-1-yl)ethyl)-7-(4-(trifluoromethoxy)phenyl)phthalazin-1 (2H)-one]
MS Rat THalf [1]: 9 min
MS Dog THalf [2]: 18 min
inhibition at 1 µM [3, 5]: 28%
MS Human THalf [4]: 13 min

O=c1c2cc(-c3ccc(OC(F)(F)F)cc3)ccc2cnn1CCc1ccncn1 [III-36, 2-(2-(pyrimidin-4-yl)ethyl)-7-(4-(trifluoromethoxy)phenyl)phthalazin-1 (2H)-one]
MS Rat THalf [1]: 32 min
MS Dog THalf [2]: 31 min
inhibition at 1 µM [3, 5]: 39%
MS Human THalf [4]: 46 min

Cc1nonc1Cn1cnc2ccc(-c3ccc(OC(F)(F)F)cc3)cc2c1=O [IV-3, 3-((4-methyl-1,2,5-oxadiazol-3-yl)methyl)-6-(4-(trifluoromethoxy)phenyl)quinazolin-4(3H)-one]
MS Rat THalf [1]: 219 min
MS Dog THalf [2]: 54 min
inhibition at 1 µM [3, 5]: 37%
MS Human THalf [4]: 366 min

O=C1c2cc(-c3ccc(OC(F)(F)F)cc3)ccc2CCN1Cc1ccccn1 [IX-2, 2-(pyridin-2-ylmethyl)-7-(4-(trifluoromethoxy)phenyl)-3,4-dihydroisoquinolin-1(2H)-one]
MS Rat THalf [1]: 106 min
MS Dog THalf [2]: 88 min
inhibition at 1 µM [3, 5]: 40%
MS Human THalf [4]: 65 min

O=C(NCc1ccco1)N1CCc2ccc(-c3ccc(C(F)(F)F)cc3)cc2C1 [IX-48, N-(furan-2-ylmethyl)-7-(4-(trifluoromethyl)phenyl)-3,4-dihydroisoquinoline-2(1H)-carboxamide]
MS Rat THalf [1]: 37 min
MS Dog THalf [2]: 149 min
inhibition at 1 µM [3, 5]: 31%
MS Human THalf [4]: 80 min

CN(C(=O)N1CCc2ccc(-c3ccc(C(F)(F)F)cc3)cc2C1)c1ccccc1 [IX-50, N-methyl-N-phenyl-7-(4-(trifluoromethyl)phenyl)-3,4-dihydroisoquinoline-2(1H)-carboxamide]
MS Rat THalf [1]: 9 min
MS Dog THalf [2]: 96 min
inhibition at 1 µM [3, 5]: 29%
MS Human THalf [4]: 61 min

O=C(N1CCCC1)N1CCc2ccc(-c3ccc(C(F)(F)F)cc3)cc2C1 [IX-53, pyrrolidin-1-yl(7-(4-(trifluoromethyl)phenyl)-3,4-dihydroisoquinolin-2(1H)-yl)methanone]
MS Rat THalf [1]: 28 min
MS Dog THalf [2]: 93 min
inhibition at 1 µM [3, 5]: 33%
MS Human THalf [4]: 198 min

Cn1ccnc1C(=O)N1CCc2ccc(-c3ccc(C(F)(F)F)cc3)cc2C1 [IX-80, (1-methyl-1H-imidazol-2-yl)(7-(4-(trifluoromethyl)phenyl)-3,4-dihydroisoquinolin-2(1H)-yl)methanone]
MS Rat THalf [1]: 7 min
MS Dog THalf [2]: 197 min
inhibition at 1 µM [3, 5]: 40%
MS Human THalf [4]: 170 min

O=C(NCc1ncccn1)N1CCc2ccc(-c3ccc(C(F)(F)F)cc3)cc2C1 [IX-89, N-(pyrimidin-2-ylmethyl)-7-(4-(trifluoromethyl)phenyl)-3,4-dihydroisoquinoline-2(1H)-carboxamide]
MS Rat THalf [1]: 192 min
MS Dog THalf [2]: 177 min
inhibition at 1 µM [3, 5]: 33%
MS Human THalf [4]: 125 min

O=C(N1CCc2ccc(-c3ccc(C(F)(F)F)cc3)cc2C1)N1CC(O)C1 [IX-108, (3-hydroxyazetidin-1-yl)(7-(4-(trifluoromethyl)phenyl)-3,4-dihydroisoquinolin-2(1H)-yl)methanone]
MS Rat THalf [1]: 302 min
MS Dog THalf [2]: 370 min
inhibition at 1 µM ([3]; % inhibition at 1 μM, read-out: NAv1.5*-LATE-): 30%
inhibition at 1 µM [3, 5]: 30%
MS Human THalf [4]: 245 min
